System: skin
Assay: Affymetrix microarray of skin, DBP-4 hr and analogs vs. untreated; gene selection by log-2 fold change, Wilcoxon, Kendall tau (Tables 8, 9)
Assay type: in vivo, mouse

CCCCOC(=O)c1ccccc1C(=O)OCCCC [DBP, dibutylphthalate]
Kendall: Dda1 (gene Dda1, NM_025600_at, gene expression vs. output): Yes
Wilcoxon: Diablo (gene Diablo, NM_023232_at, DBP-4 hr vs. untreated): No
Kendall: Diablo (gene Diablo, NM_023232_at, gene expression vs. output): Yes
Wilcoxon: Dmap1 (gene Dmap1, NM_023178_at, DBP-4 hr vs. untreated): No
Kendall: Dmap1 (gene Dmap1, NM_023178_at, gene expression vs. output): Yes
Wilcoxon: Dnajc4 (gene Dnajc4, NM_020566_at, DBP-4 hr vs. untreated): No
Kendall: Dnajc4 (gene Dnajc4, NM_020566_at, gene expression vs. output): Yes
Wilcoxon: Eid1 (gene Eid1, NM_025613_at, DBP-4 hr vs. untreated): No
Kendall: Eid1 (gene Eid1, NM_025613_at, gene expression vs. output): Yes
Wilcoxon: Eif6 (gene Eif6, NM_010579_at, DBP-4 hr vs. untreated): No
Kendall: Eif6 (gene Eif6, NM_010579_at, gene expression vs. output): Yes
Wilcoxon: Erlec1 (gene Erlec1, NM_025745_at, DBP-4 hr vs. untreated): No
Kendall: Erlec1 (gene Erlec1, NM_025745_at, gene expression vs. output): Yes
Wilcoxon: Fam134b (gene Fam134b, NM_025459_at, DBP-4 hr vs. untreated): No
Kendall: Fam134b (gene Fam134b, NM_025459_at, gene expression vs. output): Yes
Wilcoxon: Fbxo25 (gene Fbxo25, NM_025785_at, DBP-4 hr vs. untreated): No
Kendall: Fbxo25 (gene Fbxo25, NM_025785_at, gene expression vs. output): Yes
Wilcoxon: Fgf13 (gene Fgf13, NM_010200_at, DBP-4 hr vs. untreated): No
Kendall: Fgf13 (gene Fgf13, NM_010200_at, gene expression vs. output): Yes
Wilcoxon: Flt1 (gene Flt1, NM_010228_at, DBP-4 hr vs. untreated): No
Kendall: Flt1 (gene Flt1, NM_010228_at, gene expression vs. output): Yes
Wilcoxon: Fmo5 (gene Fmo5, NM_010232_at, DBP-4 hr vs. untreated): No
Kendall: Fmo5 (gene Fmo5, NM_010232_at, gene expression vs. output): Yes
Wilcoxon: Ftsj3 (gene Ftsj3, NM_025310_at, DBP-4 hr vs. untreated): No
Kendall: Ftsj3 (gene Ftsj3, NM_025310_at, gene expression vs. output): Yes
Wilcoxon: Gcnt2 (gene Gcnt2, NM_023887_at, DBP-4 hr vs. untreated): No
Kendall: Gcnt2 (gene Gcnt2, NM_023887_at, gene expression vs. output): Yes
Wilcoxon: Gmcl1 (gene Gmcl1, NM_011818_at, DBP-4 hr vs. untreated): No
Kendall: Gmcl1 (gene Gmcl1, NM_011818_at, gene expression vs. output): Yes
Wilcoxon: Gpn3 (gene Gpn3, NM_024216_at, DBP-4 hr vs. untreated): No
Kendall: Gpn3 (gene Gpn3, NM_024216_at, gene expression vs. output): Yes
Wilcoxon: Gstz1 (gene Gstz1, NM_010363_at, DBP-4 hr vs. untreated): No
Kendall: Gstz1 (gene Gstz1, NM_010363_at, gene expression vs. output): Yes
Wilcoxon: Gtf2h2 (gene Gtf2h2, NM_022011_at, DBP-4 hr vs. untreated): No
Kendall: Gtf2h2 (gene Gtf2h2, NM_022011_at, gene expression vs. output): Yes
Wilcoxon: Gtf3a (gene Gtf3a, NM_025652_at, DBP-4 hr vs. untreated): No
Kendall: Gtf3a (gene Gtf3a, NM_025652_at, gene expression vs. output): Yes
Wilcoxon: Hsdl2 (gene Hsdl2, NM_024255_at, DBP-4 hr vs. untreated): No
Kendall: Hsdl2 (gene Hsdl2, NM_024255_at, gene expression vs. output): Yes
Wilcoxon: Icos (gene Icos, NM_017480_at, DBP-4 hr vs. untreated): No
Kendall: Icos (gene Icos, NM_017480_at, gene expression vs. output): Yes
Wilcoxon: Ifngr1 (gene Ifngr1, NM_010511_at, DBP-4 hr vs. untreated): No
Kendall: Ifngr1 (gene Ifngr1, NM_010511_at, gene expression vs. output): Yes
Wilcoxon: Inpp5d (gene Inpp5d, NM_010566_at, DBP-4 hr vs. untreated): No
Kendall: Inpp5d (gene Inpp5d, NM_010566_at, gene expression vs. output): Yes
Wilcoxon: Itgax (gene Itgax, NM_021334_at, DBP-4 hr vs. untreated): No
Kendall: Itgax (gene Itgax, NM_021334_at, gene expression vs. output): Yes
Wilcoxon: Itk (gene Itk, NM_010583_at, DBP-4 hr vs. untreated): No
Kendall: Itk (gene Itk, NM_010583_at, gene expression vs. output): Yes
Wilcoxon: Krt17 (gene Krt17, NM_010663_at, DBP-4 hr vs. untreated): No
Kendall: Krt17 (gene Krt17, NM_010663_at, gene expression vs. output): Yes
Wilcoxon: Map3k14 (gene Map3k14, NM_016896_at, DBP-4 hr vs. untreated): No
Kendall: Map3k14 (gene Map3k14, NM_016896_at, gene expression vs. output): Yes
Wilcoxon: Mdp1 (gene Mdp1, NM_023397_at, DBP-4 hr vs. untreated): No
Kendall: Mdp1 (gene Mdp1, NM_023397_at, gene expression vs. output): Yes
Wilcoxon: Meis1 (gene Meis1, NM_010789_at, DBP-4 hr vs. untreated): No
Kendall: Meis1 (gene Meis1, NM_010789_at, gene expression vs. output): Yes
Wilcoxon: Mkrn3 (gene Mkrn3, NM_011746_at, DBP-4 hr vs. untreated): No
Kendall: Mkrn3 (gene Mkrn3, NM_011746_at, gene expression vs. output): Yes
Wilcoxon: Mtcp1 (gene Mtcp1, NM_010839_at, DBP-4 hr vs. untreated): No
Kendall: Mtcp1 (gene Mtcp1, NM_010839_at, gene expression vs. output): Yes
Wilcoxon: Mum1 (gene Mum1, NM_023431_at, DBP-4 hr vs. untreated): No
Kendall: Mum1 (gene Mum1, NM_023431_at, gene expression vs. output): Yes
Wilcoxon: Myd88 (gene Myd88, NM_010851_at, DBP-4 hr vs. untreated): No
Kendall: Myd88 (gene Myd88, NM_010851_at, gene expression vs. output): Yes
Wilcoxon: Nagk (gene Nagk, NM_019542_at, DBP-4 hr vs. untreated): No
Kendall: Nagk (gene Nagk, NM_019542_at, gene expression vs. output): Yes
Wilcoxon: Ndufaf3 (gene Ndufaf3, NM_023247_at, DBP-4 hr vs. untreated): No
Kendall: Ndufaf3 (gene Ndufaf3, NM_023247_at, gene expression vs. output): Yes
Wilcoxon: Nek3 (gene Nek3, NM_011848_at, DBP-4 hr vs. untreated): No
Kendall: Nek3 (gene Nek3, NM_011848_at, gene expression vs. output): Yes
Wilcoxon: Nfkb2 (gene Nfkb2, NM_019408_at, DBP-4 hr vs. untreated): No
Kendall: Nfkb2 (gene Nfkb2, NM_019408_at, gene expression vs. output): Yes
Wilcoxon: Nicn1 (gene Nicn1, NM_025449_at, DBP-4 hr vs. untreated): No
Kendall: Nicn1 (gene Nicn1, NM_025449_at, gene expression vs. output): Yes
Wilcoxon: Nme3 (gene Nme3, NM_019730_at, DBP-4 hr vs. untreated): No
Kendall: Nme3 (gene Nme3, NM_019730_at, gene expression vs. output): Yes
Wilcoxon: Ntpcr (gene Ntpcr, NM_025636_at, DBP-4 hr vs. untreated): No
Kendall: Ntpcr (gene Ntpcr, NM_025636_at, gene expression vs. output): Yes
Wilcoxon: Orc3 (gene Orc3, NM_015824_at, DBP-4 hr vs. untreated): No
Kendall: Orc3 (gene Orc3, NM_015824_at, gene expression vs. output): Yes
Wilcoxon: Padi1 (gene Padi1, NM_011059_at, DBP-4 hr vs. untreated): No
Kendall: Padi1 (gene Padi1, NM_011059_at, gene expression vs. output): Yes
Wilcoxon: Panx1 (gene Panx1, NM_019482_at, DBP-4 hr vs. untreated): No
Kendall: Panx1 (gene Panx1, NM_019482_at, gene expression vs. output): Yes
Wilcoxon: Pfdn2 (gene Pfdn2, NM_011070_at, DBP-4 hr vs. untreated): No
Kendall: Pfdn2 (gene Pfdn2, NM_011070_at, gene expression vs. output): Yes
Wilcoxon: Phtf1 (gene Phtf1, NM_013629_at, DBP-4 hr vs. untreated): No
Kendall: Phtf1 (gene Phtf1, NM_013629_at, gene expression vs. output): Yes

From patent US20150307938A1, “METHOD TO IDENTIFY A NOVEL CLASS OF IMMUNOLOGIC ADJUVANTS” (Lancell, L.L.C., priority 2011, published 2015)
